Experimental data published in ChEMBL document CHEMBL4219044, “Challenges in the design of insulin and relaxin/insulin-like peptide mimetics” (Bioorg Med Chem, 2018).
pEC50, pKd: −log10 of the molar value. Residues, ends and D or L forms follow the SMILES beside them.

Columns and labels:
Insulin receptor [1] = biological target: T1, Insulin receptor (Homo sapiens, UniProt P06213); experiment: Activation of recombinant human insulin receptor using biotin-KSRGDYMTMQIG as substrate after 1 hr by spectrophotometry relative to insulin
Insulin receptor [2] = biological target: Insulin receptor (Mus musculus, UniProt P15208); experiment: Agonist activity at B6D2F1 mouse insulin receptor assessed as increase in glucose incorporation into lipid phase after 2 hrs in presence of D-[3-3H]glucose by TopCount microplate scintillation counting method
Insulin receptor [3] = biological target: T1, Insulin receptor; experiment: Displacement of [TyrA14-125I]-human insulin from human insulin receptor isoform A expressed in baby hamster kidney cells after 2 days by gamma counting method; assay type: cell-based

T1 sequence (P06213 28-758 limits assumed): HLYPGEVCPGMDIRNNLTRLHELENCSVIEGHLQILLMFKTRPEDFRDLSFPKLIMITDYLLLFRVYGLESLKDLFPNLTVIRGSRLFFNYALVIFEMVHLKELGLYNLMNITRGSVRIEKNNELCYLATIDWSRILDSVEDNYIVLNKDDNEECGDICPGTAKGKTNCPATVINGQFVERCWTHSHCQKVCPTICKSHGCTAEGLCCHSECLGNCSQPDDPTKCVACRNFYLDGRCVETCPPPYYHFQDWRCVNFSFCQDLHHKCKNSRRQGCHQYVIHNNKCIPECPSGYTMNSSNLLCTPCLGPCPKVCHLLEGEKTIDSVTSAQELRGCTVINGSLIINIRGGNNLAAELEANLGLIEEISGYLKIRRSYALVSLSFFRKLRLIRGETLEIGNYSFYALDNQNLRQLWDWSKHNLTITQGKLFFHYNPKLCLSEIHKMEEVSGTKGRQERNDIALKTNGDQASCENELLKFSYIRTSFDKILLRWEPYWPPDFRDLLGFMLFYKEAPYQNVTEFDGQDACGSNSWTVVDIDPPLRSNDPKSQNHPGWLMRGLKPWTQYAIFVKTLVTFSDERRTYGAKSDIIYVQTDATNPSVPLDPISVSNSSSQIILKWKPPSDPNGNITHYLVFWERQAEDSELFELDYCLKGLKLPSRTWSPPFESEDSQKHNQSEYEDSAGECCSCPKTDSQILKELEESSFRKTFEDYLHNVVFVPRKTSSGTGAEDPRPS
T1 sequence (P06213 763-1382 limits assumed): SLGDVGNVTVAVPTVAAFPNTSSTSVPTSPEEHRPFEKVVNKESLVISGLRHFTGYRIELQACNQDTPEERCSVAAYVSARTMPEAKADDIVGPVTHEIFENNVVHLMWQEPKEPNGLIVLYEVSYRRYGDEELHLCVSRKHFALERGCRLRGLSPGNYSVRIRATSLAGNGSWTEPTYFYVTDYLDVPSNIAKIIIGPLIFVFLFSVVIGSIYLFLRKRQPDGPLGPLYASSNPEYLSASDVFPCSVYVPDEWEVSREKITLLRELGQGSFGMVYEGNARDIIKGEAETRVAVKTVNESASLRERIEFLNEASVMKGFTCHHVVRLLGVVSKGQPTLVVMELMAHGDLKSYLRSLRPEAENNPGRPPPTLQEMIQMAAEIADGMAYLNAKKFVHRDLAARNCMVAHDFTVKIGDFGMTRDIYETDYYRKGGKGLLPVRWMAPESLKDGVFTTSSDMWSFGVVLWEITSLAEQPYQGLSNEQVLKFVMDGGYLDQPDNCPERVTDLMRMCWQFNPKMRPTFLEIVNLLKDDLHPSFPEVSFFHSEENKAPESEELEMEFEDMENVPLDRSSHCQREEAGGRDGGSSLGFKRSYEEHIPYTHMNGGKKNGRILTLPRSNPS
Insulin receptor (Mus musculus, UniProt P15208), sequence (P15208 28-748 limits assumed): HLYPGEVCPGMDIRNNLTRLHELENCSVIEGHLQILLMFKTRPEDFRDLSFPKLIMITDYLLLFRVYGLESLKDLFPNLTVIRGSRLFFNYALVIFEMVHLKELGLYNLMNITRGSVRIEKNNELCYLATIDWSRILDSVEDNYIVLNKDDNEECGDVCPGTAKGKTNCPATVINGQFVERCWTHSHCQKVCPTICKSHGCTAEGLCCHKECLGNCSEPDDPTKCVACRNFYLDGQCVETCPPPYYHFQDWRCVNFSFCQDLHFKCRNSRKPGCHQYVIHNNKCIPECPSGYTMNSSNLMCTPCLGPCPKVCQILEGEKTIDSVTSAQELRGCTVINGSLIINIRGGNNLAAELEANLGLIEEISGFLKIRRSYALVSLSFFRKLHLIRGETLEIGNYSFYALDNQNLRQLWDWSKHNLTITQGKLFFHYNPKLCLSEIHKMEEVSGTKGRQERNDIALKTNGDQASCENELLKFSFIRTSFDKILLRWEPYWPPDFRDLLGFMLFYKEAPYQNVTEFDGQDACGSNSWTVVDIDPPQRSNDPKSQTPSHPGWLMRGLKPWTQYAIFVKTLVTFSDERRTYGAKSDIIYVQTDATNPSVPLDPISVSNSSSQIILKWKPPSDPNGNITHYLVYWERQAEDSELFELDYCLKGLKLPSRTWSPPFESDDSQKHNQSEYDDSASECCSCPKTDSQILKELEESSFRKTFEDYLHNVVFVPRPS
Insulin receptor (Mus musculus, UniProt P15208), sequence (P15208 753-1372 limits assumed): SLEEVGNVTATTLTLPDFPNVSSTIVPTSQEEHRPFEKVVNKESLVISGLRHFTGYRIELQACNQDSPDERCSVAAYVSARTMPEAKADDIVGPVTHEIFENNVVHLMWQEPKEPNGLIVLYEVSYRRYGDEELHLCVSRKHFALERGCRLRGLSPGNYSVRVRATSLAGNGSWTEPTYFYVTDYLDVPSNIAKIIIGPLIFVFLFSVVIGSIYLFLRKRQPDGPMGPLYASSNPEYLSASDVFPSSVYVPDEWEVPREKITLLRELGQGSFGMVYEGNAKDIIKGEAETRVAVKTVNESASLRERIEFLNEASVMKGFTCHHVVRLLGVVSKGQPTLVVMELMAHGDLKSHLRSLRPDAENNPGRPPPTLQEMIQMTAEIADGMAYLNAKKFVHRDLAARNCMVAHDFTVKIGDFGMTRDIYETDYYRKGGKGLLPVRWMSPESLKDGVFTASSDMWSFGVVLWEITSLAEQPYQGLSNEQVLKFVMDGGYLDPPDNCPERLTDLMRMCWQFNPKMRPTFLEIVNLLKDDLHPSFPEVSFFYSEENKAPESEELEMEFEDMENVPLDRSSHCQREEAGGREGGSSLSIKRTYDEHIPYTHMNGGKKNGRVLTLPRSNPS

Activity (Insulin receptor [1]): 10% | pEC50 (Insulin receptor [2]): 8.40 | pKd (Insulin receptor [3]): 10.70
Compound: CC(C)C[C@H](NC(=O)[C@H](CCC(N)=O)NC(=O)[C@H](CCCNC(=N)N)NC(=O)[C@H](CCC(=O)O)NC(=O)[C@H](Cc1ccccc1)NC(=O)[C@H](Cc1c[nH]c2ccccc12)NC(=O)[C@H](CC(=O)O)NC(=O)[C@H](Cc1ccc(O)cc1)NC(=O)[C@H](Cc1ccccc1)NC(=O)[C@H](CO)NC(=O)[C@H](CCC(=O)O)NC(=O)[C@H](CC(=O)O)NC(=O)[C@H](CC(C)C)NC(=O)[C@H](CO)NC(=O)CNC(=O)[C@H](CO)NC(=O)[C@@H]1CCCN1C(=O)[C@H](CS)NC(=O)CNC(=O)[C@H](CCCNC(=N)N)NC(=O)CNC(=O)[C@H](Cc1ccc(O)cc1)NC(=O)[C@@H](NC(=O)[C@H](CCC(=O)O)NC(=O)[C@H](CS)NC(=O)[C@H](CCC(=O)O)NC(=O)[C@@H](NC(=O)[C@H](CCC(N)=O)NC(=O)[C@H](C)NC(=O)[C@H](Cc1c[nH]c2ccccc12)NC(=O)[C@H](CCC(=O)O)NC(=O)[C@H](CCC(=O)O)NC(=O)[C@H](CCC(=O)O)NC(=O)[C@H](CC(C)C)NC(=O)[C@@H](N)CO)C(C)C)C(C)C)C(=O)NCC(=O)O (H-SLEEEWAQVECEVYGRGCPSGSLDESFYDWFERQLG-OH)
